Several values for one entry are separate records, joined by “and”; a condition that tells them apart may be missing. Equal entries are not always repeated. Structures can show the parent of a compound that is named as a salt.
Experiments:
[1] = biological target: T1, D1 (Homo sapiens, UniProt P21728); experiment: D1 cAMP HTRF assay (HEK293T/hD1#1 stable cell line); format: cell-based; parameters: expressed in transfected cells
Description: This assay was used to determine the ability of a test compound to agonize (including partially agonize) D1. A Mab anti-cAMP labeled Cryptate visualizes the tracer. […] The signal, therefore, is inversely proportional to the concentration of cAMP in the sample.
The cAMP Dynamic kit was obtained from Cisbio International (Cisbio 62AM4PEJ). Multidrop Combi (Thermo Scientific) was used for assay additions. Envision (PerkinElmer) reader was used to read HTRF.
A HEK293T/hD1#1 stable cell line was constructed internally (Pfizer Ann Arbor). […] One mL aliquots of the cells were made in Cryo-vials and frozen at −80° C. for future use in the D1 HTRF assay.
Frozen cells were quickly thawed, re-suspended in 50 mL warm media and allowed to sit for 5 min prior to centrifugation (1000 rpm) at room temperature. Media was removed and cell pellet was re-suspended in PBS/0.5 μM IBMX generating 2e5 cells/mL. […] Cells and compounds were incubated at room temperature for 30 min. Working solutions of cAMP-D2 and anti-cAMP-cryptate were prepared according to Cisbio instructions. Using Multidrop, 5 μL cAMP-D2 working solution was added to the assay plate containing the test compound and cells. Using Multidrop, 5 μL anti-cAMP-cryptate working solutions was added to assay plate containing test compound, cells and cAMP-D2. Assay plate was incubated for 1 hour at room temperature. Assay plate was read on Envision plate reader using Cisbio recommended settings. A cAMP standard curve was generated using cAMP stock solution provided in the Cisbio kit.
Data analysis was done using computer software. Percent effects were calculated from the compound controls. Ratio EC50 was determined using the raw ratio data from the Envision reader. The cAMP standard curve was used in an analysis program to determine cAMP concentrations from raw ratio data. cAMP EC50 was determined using the calculated cAMP data.

[2] = biological target: T1, D1; experiment: Human D1 receptor binding assay ([3H]-SCH23390 competition); settings: Human D1 Receptor Binding, Ki (nM), Geometric mean of 2-4 determinations, a: >=5 determinations, d: single determination
Description: D1 binding assays were performed using over-expressing LTK human cell lines. […] These ligand and tissue concentrations were used in time course studies to determine linearity and equilibrium conditions for binding. Binding was at equilibrium with the specified amount of tissue in 30 minutes at 37° C. […] The pellet was resuspended in assay buffer (50 mM Tris (pH 7.4@ RT) containing 4 mM MgSO4 and 0.5 mM EDTA). […] After a 30 minute incubation period at 37° C., assay samples were rapidly filtered through Unifilter-96 GF/B PEI-coated filter plates and rinsed with 50 mM Tris buffer (pH 7.4 at 4° C.). […] Ki values were calculated according to the Cheng-Prusoff equation.

T1 sequence (P21728 whole entry): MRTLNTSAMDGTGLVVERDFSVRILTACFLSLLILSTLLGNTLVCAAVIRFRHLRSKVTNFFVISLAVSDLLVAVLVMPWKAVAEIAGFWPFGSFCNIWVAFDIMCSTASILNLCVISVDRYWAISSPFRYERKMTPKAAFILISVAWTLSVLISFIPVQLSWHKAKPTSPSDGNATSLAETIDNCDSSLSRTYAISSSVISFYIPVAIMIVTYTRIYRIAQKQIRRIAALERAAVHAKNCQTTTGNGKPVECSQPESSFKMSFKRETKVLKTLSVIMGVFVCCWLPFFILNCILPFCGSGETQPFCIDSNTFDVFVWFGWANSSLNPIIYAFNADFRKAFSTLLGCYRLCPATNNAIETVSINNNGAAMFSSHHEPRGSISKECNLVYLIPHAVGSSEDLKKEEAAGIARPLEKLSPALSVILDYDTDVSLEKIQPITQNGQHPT

Structure (SMILES) | EC50 [1] | Ki [2]
CNc1cc(Oc2nccc3occc23)ccc1-c1cccc2nccn12 [Example 38, 5-(furo[3,2-c]pyridin-4-yloxy)-2-(imidazo[1,2-a]pyridin-5-yl)-N-methylaniline] | 200 nM | 36 nM
Cc1nc2cnccc2n1-c1ccc(Oc2nccc3occc23)cc1Cl [Example 39, 1-[2-chloro-4-(furo[3,2-c]pyridin-4-yloxy)phenyl]-2-methyl-1H-imidazo[4,5-c]pyridine] | 415 nM | 91 nM
c1cc(-c2ccc(Oc3nccc4occc34)cc2OCc2cscn2)n2ccnc2c1 [Example 40, 4-[4-(imidazo[1,2-a]pyridin-5-yl)-3-(1,3-thiazol-4-ylmethoxy)phenoxy]furo[3,2-c]pyridine, trifluoroacetate salt] | 1270 nM | 107 nM
CCC(=O)COc1cc(Oc2nccc3occc23)ccc1-c1cccc2nccn12 [Example 41, 1-[5-(furo[3,2-c]pyridin-4-yloxy)-2-(imidazo[1,2-a]pyridin-5-yl)phenoxy]butan-2-one, trifluoroacetate salt] | 517 nM | 72.1 nM
OCCOc1cc(Oc2nccc3occc23)ccc1-c1cccc2nccn12 [Example 42, 2-[5-(furo[3,2-c]pyridin-4-yloxy)-2-(imidazo[1,2-a]pyridin-5-yl)phenoxy]ethanol, trifluoroacetate salt] | 406 nM | 118 nM
O=C(COc1cc(Oc2nccc3occc23)ccc1-c1cccc2nccn12)NC1CC1 [Example 43, N-cyclopropyl-2-[5-(furo[3,2-c]pyridin-4-yloxy)-2-(imidazo[1,2-a]pyridin-5-yl)phenoxy]acetamide, trifluoroacetate salt] | 605 nM | 211 nM
COC(=O)COc1cc(Oc2nccc3occc23)ccc1-c1cccc2nccn12 [Example 44, methyl [5-(furo[3,2-c]pyridin-4-yloxy)-2-(imidazo[1,2-a]pyridin-5-yl)phenoxy]acetate, trifluoroacetate salt] | 651 nM | 129 nM
Cc1cc(Oc2nccc3occc23)ccc1-c1c(C)cnc2ncnn12 [Example 45, 7-[4-(furo[3,2-c]pyridin-4-yloxy)-2-methylphenyl]-6-methyl[1,2,4]triazolo[1,5-a]pyrimidine] | 1140 nM | 182 nM
O=C(NC1CCC1)c1cc(Oc2nccc3occc23)ccc1-c1cccc2nccn12 [Example 46, N-cyclobutyl-5-(furo[3,2-c]pyridin-4-yloxy)-2-(imidazo[1,2-a]pyridin-5-yl)benzamide, trifluoroacetate salt] | 2120 nM | 316 nM
CCOCC(=O)Nc1cc(Oc2nccc3occc23)ccc1-c1cccc2nccn12 [Example 47, 2-ethoxy-N-[5-(furo[3,2-c]pyridin-4-yloxy)-2-(imidazo[1,2-a]pyridin-5-yl)phenyl]acetamide] | 935 nM | 302 nM
Cn1cncc1CNc1cc(Oc2nccc3occc23)ccc1-c1cccc2nccn12 [Example 48, 5-(furo[3,2-c]pyridin-4-yloxy)-2-(imidazo[1,2-a]pyridin-5-yl)-N-[(1-methyl-1H-imidazol-5-yl)methyl]aniline, trifluoroacetate salt] | 2070 nM | 68.8 nM
CC(NCc1cc(Oc2nccc3occc23)ccc1-c1cccc2nccn12)c1cncs1 (stereo not shown) [Example 49, N-[5-(furo[3,2-c]pyridin-4-yloxy)-2-(imidazo[1,2-a]pyridin-5-yl)benzyl]-1-(1,3-thiazol-5-yl)ethanamine, trifluoroacetate salt] | 3680 nM | 121 nM
CN(Cc1ccccn1)Cc1cc(Oc2nccc3occc23)ccc1-c1cccc2nccn12 [Example 50, 1-[5-(furo[3,2-c]pyridin-4-yloxy)-2-(imidazo[1,2-a]pyridin-5-yl)phenyl]-N-methyl-N-(pyridin-2-ylmethyl)methanamine, trifluoroacetate salt] | 1130 nM | 55.1 nM
COc1cc(Oc2nccc3occc23)ccc1-c1c(C)ccnc1C#N [Example 51, 3-[4-(furo[3,2-c]pyridin-4-yloxy)-2-methoxyphenyl]-4-methylpyridine-2-carbonitrile, trifluoroacetate salt] | 799 nM and 1220 nM | 61.7 nM
Cc1cc(Oc2nccc3occc23)ccc1-c1cccnc1C [Example 52, 4-[3-methyl-4-(2-methylpyridin-3-yl)phenoxy]furo[3,2-c]pyridine] | 463 nM | 53 nM
Cc1cc(Oc2nccc3occc23)ccc1-c1nc(N)cnc1C [Example 53, 6-[4-(furo[3,2-c]pyridin-4-yloxy)-2-methylphenyl]-5-methylpyrazin-2-amine, trifluoroacetate salt] | 953 nM | 173 nM

Structure (SMILES) | EC50 [1] | Ki [2]
FC(F)(F)c1cc(Oc2nccc3occc23)ccc1-c1cccc2nccn12 [Example 54, 4-[4-(imidazo[1,2-a]pyridin-5-yl)-3-(trifluoromethyl)phenoxy]furo[3,2-c]pyridine] | 243 nM | 10.2 nM
Cc1cc(N(C)c2nccc3occc23)ccc1-c1cccc2nccn12 [Example 55, N-[4-(imidazo[1,2-a]pyridin-5-yl)-3-methylphenyl]-N-methylfuro[3,2-c]pyridin-4-amine] | > 29900 nM | 244 nM
Cc1cc(Oc2nccc3occc23)ccc1-c1ccc(N)nc1C [Example 56, 5-[4-(furo[3,2-c]pyridin-4-yloxy)-2-methylphenyl]-6-methylpyridin-2-amine] | 633 nM and 435 nM | 98.7 nM
Cc1ncc2nccn2c1-c1ccc(Oc2nccc3occc23)cc1O [Example 57, 5-(furo[3,2-c]pyridin-4-yloxy)-2-(6-methylimidazo[1,2-a]pyrazin-5-yl)phenol] | 116 nM | 17.4 nM
Cc1cc(Oc2nccc3occc23)ccc1-c1cncnc1C [Example 58, 4-[3-methyl-4-(4-methylpyrimidin-5-yl)phenoxy]furo[3,2-c]pyridine] | 900 nM and 1110 nM | 160 nM
Cc1cc(Oc2nccc3occc23)ccc1-c1cccc2[nH]c(=O)ccc12 [Example 59, 5-[4-(furo[3,2-c]pyridin-4-yloxy)-2-methylphenyl]quinolin-2(1H)-one] | 1010 nM and 1150 nM | 103 nM
COc1ccc(-c2ccc(Oc3nccc4occc34)cc2C)c(C)n1 [Example 60, 4-[4-(6-methoxy-2-methylpyridin-3-yl)-3-methylphenoxy]furo[3,2-c]pyridine, trifluoroacetate salt] | 2910 nM and 1040 nM | 178 nM
Cc1nccnc1-c1ccc(Oc2nccc3occc23)cc1OCCCN(C)C [Example 61, 3-[5-(furo[3,2-c]pyridin-4-yloxy)-2-(3-methylpyrazin-2-yl)phenoxy]-N,N-dimethylpropan-1-amine, formate salt] | 1110 nM and 811 nM | 228 nM
Cc1cc(Oc2nccc3occc23)ccc1-c1c(C)ncnc1N [Example 63, 5-[4-(furo[3,2-c]pyridin-4-yloxy)-2-methylphenyl]-6-methylpyrimidin-4-amine] | 1350 nM and 843 nM | 210 nM
CCc1cc(Oc2nccc3occc23)ccc1-c1c(C)ncc2nccn12 [Example 64, 5-[2-ethyl-4-(furo[3,2-c]pyridin-4-yloxy)phenyl]-6-methylimidazo[1,2-a]pyrazine] | 134 nM | 12.1 nM
Cc1ncc2nccn2c1-c1ccc(Oc2nccc3occc23)cc1F [Example 65, 5-[2-fluoro-4-(furo[3,2-c]pyridin-4-yloxy)phenyl]-6-methylimidazo[1,2-a]pyrazine] | 193 nM and 300 nM | 61.1 nM
Cc1nccnc1-c1ccc(Oc2nccc3occc23)cc1OCc1c(C)noc1C [Example 66, 4-{3-[(3,5-dimethyl-1,2-oxazol-4-yl)methoxy]-4-(3-methylpyrazin-2-yl)phenoxy}furo[3,2-c]pyridine, formate salt] | 737 nM | 85.4 nM
Cc1cccnc1COc1cc(Oc2nccc3occc23)ccc1-c1nccnc1C [Example 68, 4-{4-(3-methylpyrazin-2-yl)-3-[(3-methylpyridin-2-yl)methoxy]phenoxy}furo[3,2-c]pyridine, formate salt] | 1480 nM | 154 nM
Cc1ncnc(C)c1-c1ccc(Oc2nccc3occc23)cc1F [Example 69, 4-[4-(4,6-dimethylpyrimidin-5-yl)-3-fluorophenoxy]furo[3,2-c]pyridine] | 201 nM and 203 nM | 77.7 nM
Cc1ncnc(C#N)c1-c1ccc(Oc2nccc3occc23)cc1F [Example 70, 5-[2-fluoro-4-(furo[3,2-c]pyridin-4-yloxy)phenyl]-6-methylpyrimidine-4-carbonitrile] | 424 nM and 1020 nM | 124 nM
COc1cc(Oc2nccc3occc23)ccc1-c1c(C)ncnc1C [Example 71, 4-[4-(4,6-dimethylpyrimidin-5-yl)-3-methoxyphenoxy]furo[3,2-c]pyridine] | 298 nM and 965 nM | 50.5 nM

Source: patent US20150291625A1 (PFIZER INC., priority 2012, published 2015)
